Earlier results, collected in PMC8538004, “Identification of a Novel Neuropeptide S Receptor Antagonist Scaffold Based on the SHA-68 Core” (Pharmaceuticals, 2021).

Columns and labels:
[1] = test system: NPSR; parameters: method as in PMID 24964000, PMID 20615693, PMID 18337476, PMID 24171469, PMID 20510609; details: Figure 1, known NPSR antagonists; cited from earlier work
[2] = test system: NPS-stimulated locomotor activity; parameters: method as in PMID 18337476, PMID 20172007; details: dosed at 50 mg/kg, 0.1 nmol of NPS; cited from earlier work

O=C(NCc1ccc(F)cc1)N1CCN2C(=O)OC(c3ccccc3)(c3ccccc3)C2C1 (centres unmarked) [SHA-68, 3-Oxo-1,1-diphenyl-tetrahydro-oxazolo[3,4-a]pyrazine-7-carboxylic Acid 4-Fluoro-benzylamide]
Ke [1]: 14 nM | Block of NPS-stimulated locomotor activity [2]: significantly block
